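Here, GI50 denotes the concentration required for 50% inhibition of growth. TGI denotes the concentration required for complete inhibition of growth.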
What was measured:
Assay in all cases: inhibition of tumour cell growth, NCI panel, 384-well format
[1] = system: SN12C renal
[2] = system: BT-549 breast
[3] = system: ACHN renal
[4] = system: SW-620 colon
[5] = system: NCI-H23 lung
[6] = system: NCI/ADR-RES ovarian
[7] = system: HT29 colon
[8] = system: HS 578T breast
[9] = system: HCC-2998 colon
[10] = system: CCRF-CEM leukemia
[11] = system: RPMI-8226 leukemia
[12] = system: SK-MEL-28 melanoma
[13] = system: NCI-H322M lung
[14] = system: M14 melanoma
[15] = system: HOP-62 NSCLC
[16] = system: HL-60(TB) leukemia
[17] = system: SF-295 CNS
[18] = system: COLO 205 colon
[19] = system: A498 renal
[20] = system: 786-0 renal
[21] = system: EKVX NSCLC
[22] = system: A549 NSCLC
[23] = system: SR leukemia
[24] = system: LOX IMVI melanoma
[25] = system: OVCAR-8 ovarian
[26] = system: DU-145 prostate
[27] = system: UO-31 renal
[28] = system: K-562 leukemia
[29] = system: MALME-3M melanoma
[30] = system: NCI-H460 NSCLC
[31] = system: SNB-75 CNS
[32] = system: SK-OV-3 ovarian
[33] = system: KM12 colon
[34] = system: OVCAR-5 ovarian
[35] = system: NCI-H522 lung
[36] = system: UACC-62 melanoma
[37] = system: SNB-19 CNS
[38] = system: HOP-92 NSCLC
[39] = system: OVCAR-4 ovarian
[40] = system: MDA-MB-468 breast
[41] = system: U251 glioblastoma
[42] = system: NCI-H226 lung
[43] = system: TK-10 renal
[44] = system: RXF 393 renal
[45] = system: MCF7 breast
[46] = system: PC-3 prostate
[47] = system: T-47D breast
[48] = system: CAKI-1 renal
[49] = system: SF-268 CNS
[50] = system: MOLT-4 leukemia
[51] = system: SK-MEL-5 melanoma
[52] = system: MDA-MB-435 melanoma
[53] = system: UACC-257 melanoma
[54] = system: MDA-MB-231 breast
[55] = system: HCT-15 colon
[56] = system: IGROV1 ovarian
[57] = system: OVCAR-3 ovarian
[58] = system: SF-539 CNS

SMILES: COc1ccc(Br)cc1NC(=O)Nc1cccc2c1ccn2Cc1ccnc(N)c1
- GI50 [1]: 6.14 µM
- TGI [1]: 19.2 µM
- GI50 [2]: 9.64 µM
- TGI [2]: 21.5 µM
- GI50 [3]: 7.08 µM
- TGI [3]: 20.3 µM
- GI50 [4]: 12.4 µM
- TGI [4]: 25 µM
- GI50 [5]: 9.53 µM
- TGI [5]: 21.6 µM
- GI50 [6]: 10.5 µM
- TGI [6]: 23 µM
- GI50 [7]: 2.01 µM
- TGI [7]: 4.13 µM
- GI50 [8]: 6.06 µM
- TGI [8]: 17.8 µM
- GI50 [9]: 3.51 µM
- TGI [9]: 8.43 µM
- GI50 [10]: 2.49 µM
- TGI [10]: 5.33 µM
- GI50 [11]: 2.35 µM
- TGI [11]: 6.39 µM
- GI50 [12]: 11.5 µM
- TGI [12]: 23.7 µM
- GI50 [13]: 8.46 µM
- TGI [13]: 21.4 µM
- GI50 [14]: 6.29 µM
- TGI [14]: 18.1 µM
- GI50 [15]: 11.7 µM
- TGI [15]: 24.1 µM
- GI50 [16]: 1.87 µM
- TGI [16]: 4.64 µM
- GI50 [17]: 2.82 µM
- TGI [17]: 8.47 µM
- GI50 [18]: 5.82 µM
- TGI [18]: 18.2 µM
- GI50 [19]: 3.56 µM
- TGI [19]: 13.5 µM
- GI50 [20]: 4.23 µM
- TGI [20]: 16.6 µM
- GI50 [21]: 8.67 µM
- TGI [21]: 22 µM
- GI50 [22]: 7.56 µM
- TGI [22]: 20.2 µM
- GI50 [23]: 1.75 µM
- TGI [23]: 3.72 µM
- GI50 [24]: 4.85 µM
- TGI [24]: 15.2 µM
- GI50 [25]: 11.9 µM
- TGI [25]: 24.5 µM
- GI50 [26]: 12.9 µM
- TGI [26]: 27.9 µM
- GI50 [27]: 12.2 µM
- TGI [27]: 24.9 µM
- GI50 [28]: 1.47 µM
- TGI [28]: 2.81 µM
- GI50 [29]: 7.13 µM
- TGI [29]: 19.9 µM
- GI50 [30]: 3.15 µM
- TGI [30]: 9.4 µM
- GI50 [31]: 14.1 µM
- TGI [31]: 29.7 µM
- GI50 [32]: 8.96 µM
- TGI [32]: 21.1 µM
- GI50 [33]: 2.54 µM
- TGI [33]: 5.81 µM
- GI50 [34]: 11.8 µM
- TGI [34]: 24.6 µM
- GI50 [35]: 3.51 µM
- TGI [35]: 10.6 µM
- GI50 [36]: 5.8 µM
- TGI [36]: 18.6 µM
- GI50 [37]: 9.24 µM
- TGI [37]: 21.7 µM
- GI50 [38]: 5.73 µM
- TGI [38]: 18.3 µM
- GI50 [39]: 3.72 µM
- TGI [39]: 9.86 µM
- GI50 [40]: 2.81 µM
- TGI [40]: 5.07 µM
- GI50 [41]: 6.92 µM
- TGI [41]: 19.5 µM
- GI50 [42]: 5.77 µM
- TGI [42]: 17.9 µM
- GI50 [43]: 6.85 µM
- TGI [43]: 20 µM
- GI50 [44]: 6.56 µM
- TGI [44]: 18.7 µM
- GI50 [45]: 5.26 µM
- TGI [45]: 18.3 µM
- GI50 [46]: 6.67 µM
- TGI [46]: 18.9 µM
- GI50 [47]: 3.77 µM
- TGI [47]: 11.8 µM
- GI50 [48]: 10.7 µM
- TGI [48]: 22.8 µM
- GI50 [49]: 9.97 µM
- TGI [49]: 21.9 µM
- GI50 [50]: 1.56 µM
- TGI [50]: 3.55 µM
- GI50 [51]: 4.55 µM
- TGI [51]: 15.4 µM
- GI50 [52]: 10.9 µM
- TGI [52]: 23 µM
- GI50 [53]: 4.42 µM
- TGI [53]: 14.2 µM
- GI50 [54]: 13.2 µM
- TGI [54]: 26.1 µM
- GI50 [55]: 2.02 µM
- TGI [55]: 3.63 µM
- GI50 [56]: 11.3 µM
- TGI [56]: 23.6 µM
- GI50 [57]: 10 µM
- TGI [57]: 21.7 µM
- GI50 [58]: 4.44 µM
- TGI [58]: 18 µM

From PubChem BioAssay (NCI)
